The source of these data is patent publication US9580459B2, “Water-soluble ursodeoxycholic acid prodrugs” (Metselex, Inc., priority 2013, dated 2017).

The structures appear in SMILES notation.

Data set [1] in a line: stability in Tris glycine buffer without enzyme (31P NMR). Type of data set: physicochemical. Conditions: 0.100 M Tris glycine buffer with 1.0 mM ZnCl2 and 1.0 mM MgCl2, 1 h, no enzyme. Here is the method: Compound 19d (10.0 mg, 0.016 mmol) or compound 3 (8.7 mg, 0.016 mmol) was dissolved in 0.6 mL of a 0.100 M Tris glycine buffer solution containing 1.0 mM ZnCl2 and 1.0 mM MgCl2. […] 50 μL of the previously prepared AP stock solution was further diluted by addition to 0.950 mL of a 0.100 M Tris glycine buffer containing 1.0 mM ZnCl2 and 1.0 mM MgCl2. […] A series of 42 inverse-gated decoupled ^31P NMR's were taken (24 scans each, approximately one minute acquisition time). Conversion (%) was determined from the relative integration of the starting material and product peaks, NMR time stamps were used to determine time. Each experiment was repeated three times.

Data set [2] deals with primary rat hepatocytes. Nature of the data set: TGFβ1-induced loss of cellular viability (CellTiter-Fluor viability assay). Type of data set: cell-based. The following applies: presence or absence of 3 U/ml alkaline phosphatase; preliminary results.
The subject of data set [3] is primary rat hepatocytes. Put plainly: TGFβ1-induced cytotoxicity (LDH release). Type of data set: cell-based. The following applies: 100 μM, 12 hours, then 1 nmol/L TGF-β1 24 hours; alkaline phosphatase added for compound 19d; p<0.05. Here is the method:
To compare the in vitro cytoprotective effects of the new prodrugs with UDCA, an alcohol-linked phosphate prodrug (the 3-substituted prodrug compound 3) and the POMC prodrug compound 19d were evaluated for their ability to modulate TGFβ1-induced cytotoxicity. […] Therefore, AP was added to the culture medium whenever assessing the cytoprotective potential of compound 19d. The ability of compound 3 and compound 19d to inhibit TGFβ1-induced general cell death, as compared with UDCA were analyzed. […] Results are expressed as means±SEM of at least three different experiments (*p<0.01 from respective control; §p<0.05 from respective TGFβ). […] Similarly as before, UDCA, compound 3 and compound 19d, inhibited TGFβ1-induced cytotoxicity by about 40, 30 and 60%, respectively (p<0.05).
In another example, primary rat hepatocytes were isolated from male rats (100-150 g) by collagenase perfusion. Briefly, rats were anesthetized with phenobarbital sodium (100 mg/kg body weight) injected into the peritoneal cavity. […] Cell viability was determined by trypan blue exclusion and was typically 80-85%. […]
In another example, LDH, a stable cytosolic enzyme, is released to cell culture media following cell lysis, and can be used as a marker of cytotoxicity. […] Finally, absorbance was measured at 490 nm, with 690 nm as reference, using a Bio-Rad model 680-microplate reader (Bio-Rad Laboratories, Hercules, Calif.).

Data set [4] is described as follows: aqueous solubility of the prodrugs. Type of data set: physicochemical. Here is the method:
To obtain the 7-substituted phosphate ester prodrug of UDCA, benzyl ester 1 was treated with benzyl chloroformate and pyridine in dichloromethane as shown in FIG. 2. This led to a mixture of products, including 3-Cbz-protected alcohol (41%) (compound 4), 7-Cbz-protected alcohol (10%) (compound 5), and recovered starting material (41%). These products were readily separated by column chromatography, which allowed definitive confirmation of the regiochemistry of the prodrugs by ^1H NMR analysis, as the signal of the proton next to the Cbz-protected alcohol (Ha in FIG. 2) was a dddd in the major mono-substituted product (consistent with compound 4) and a ddd in the minor mono-substituted product (consistent with compound 5). Compound 4 was then converted into a 7-substituted phosphate ester prodrug (compound 7) using dibenzyl N,N-diethylphosphoramidite followed by oxidation with H2O2 and then Pd/C catalyzed debenzylation. Similar standard conditions converted compound 5 into the same 3-substituted phosphate ester prodrug (compound 3) that was obtained in FIG. 1. Both phosphate prodrugs (compound 3 and compound 7) were highly aqueously soluble, rapidly dissolving at all concentrations tested (up to 20 mg/mL), and were stable in solution for extended periods of time (>6 months) without any apparent decomposition. […]

For data set [5], the target named is T1, alkaline phosphatase from bovine intestinal mucosa (Bos taurus, UniProt P19111).
T1 construct: alkaline phosphatase from bovine intestinal mucosa; purchased Sigma-Aldrich P5521-2KU; host or cells: bovine intestinal mucosa (tissue-derived)
T1 sequence (P19111 20-506 limits assumed): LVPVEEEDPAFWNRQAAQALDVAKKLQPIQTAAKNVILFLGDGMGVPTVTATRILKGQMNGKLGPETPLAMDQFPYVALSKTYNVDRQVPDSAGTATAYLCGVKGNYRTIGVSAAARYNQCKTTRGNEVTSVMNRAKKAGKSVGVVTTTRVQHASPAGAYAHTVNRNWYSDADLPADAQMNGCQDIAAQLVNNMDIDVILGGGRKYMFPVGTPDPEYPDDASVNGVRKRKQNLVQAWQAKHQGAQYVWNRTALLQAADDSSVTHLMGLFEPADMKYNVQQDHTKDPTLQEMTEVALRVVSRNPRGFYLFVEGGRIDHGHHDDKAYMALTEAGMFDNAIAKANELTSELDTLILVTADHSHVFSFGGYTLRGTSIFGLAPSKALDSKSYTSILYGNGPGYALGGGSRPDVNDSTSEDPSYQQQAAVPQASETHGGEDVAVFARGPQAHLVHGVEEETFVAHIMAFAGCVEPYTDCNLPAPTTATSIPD
Nature of the data set: alkaline phosphatase catalyzed activation monitored by inverse-gated decoupled 31P NMR. Type of data set: biochemical. Conditions: in vitro, Tris glycine buffer. Here is the method: To determine whether the POMC prodrug was indeed activated under in vitro conditions faster than a prodrug where the phosphate moiety is directly linked to an alcohol, a series of experiments were conducted monitoring the alkaline phosphatase catalyzed activation of the prodrugs compound 19d and compound 3 by inverse-gated decoupled ^31P NMR. […] Each data point represents the mean of three separate experiments±standard error of the mean (SEM).
In another example, alkaline phosphatase from bovine intestinal mucosa (P5521-2KU, Sigma-Aldrich, St. Louis, Mo.) was dissolved in 2.0 mL of a 0.100 M […] glycine buffer containing 1.0 mM ZnCl2 and 1.0 mM MgCl2. This stock solution was stored at 4° C. between uses.
Compound 19d (10.0 mg, 0.016 mmol) or compound 3 (8.7 mg, 0.016 mmol) was dissolved in 0.6 mL of a 0.100 M Tris glycine buffer solution containing 1.0 mM ZnCl2 and 1.0 mM MgCl2. […] 50 μL of the previously prepared AP stock solution was further diluted by addition to 0.950 mL of a 0.100 M Tris glycine buffer containing 1.0 mM ZnCl2 and 1.0 mM MgCl2. 10.0 μL of this diluted AP solution was added to the prodrug solution by syringe. […] Conversion (%) was determined from the relative integration of the starting material and product peaks, NMR time stamps were used to determine time. […]

`C[C@H](CCC(=O)O)[C@H]1CC[C@H]2[C@@H]3[C@@H](O)C[C@@H]4C[C@H](OP(=O)([O-])[O-])CC[C@]4(C)[C@H]3CC[C@]12C.[Na+].[Na+]` [compound 3, 3-(Phosphonatooxy)-ursodeoxycholic acid sodium salt]: the “decomposition by 31P NMR in buffer” value in data set [1] is listed as “Neither compound showed decomposition”. In the data set with primary rat hepatocytes [2], the “effect of alkaline phosphatase (AP) in the culture medium on cytoprotective properties” value is given as “does not significantly change”. In the data set with primary rat hepatocytes [3], the “inhibition of TGFβ1-induced cytotoxicity (LDH release)” value is on record as roughly 30%.

`C[C@H](CCC(=O)O)[C@H]1CC[C@H]2[C@@H]3[C@@H](OP(=O)([O-])[O-])C[C@@H]4C[C@H](O)CC[C@]4(C)[C@H]3CC[C@]12C.[Na+].[Na+]` [compound 7, 7-(Phosphonatooxy)-ursodeoxycholic acid sodium salt]: the aqueous solubility (usually the dissolved amount per volume that the medium holds) in data set [4] is reported as no less than 20 mg/mL.

With `CC(CCC(=O)OCOP(=O)(O)O)C1CCC2C3C(O)CC4CC(O)CCC4(C)C3CCC12C` (stereo not shown) [compound 19, ursodeoxycholic acid phosphonooxymethoxy ester], the “rate of release of UDCA by alkaline phosphatase (compared with compound 3)” value in data set [5] was “faster”. Moreover, the “effect of alkaline phosphatase (AP) in the culture medium on cytoprotective properties” value with primary rat hepatocytes [2] is on record as “required activation by exogenous alkaline phosphatase”.

On to `C[C@H](CCC(=O)O)[C@H]1CC[C@H]2[C@@H]3[C@@H](O)C[C@@H]4C[C@H](O)CC[C@]4(C)[C@H]3CC[C@]12C` [UDCA, Ursodeoxycholic acid], for which the “inhibition of TGFβ1-induced cytotoxicity (LDH release)” value with primary rat hepatocytes [3] was “about 40%”.
